Data as given in patent publication US10882856B2 (BeiGene, Ltd., priority 2017, dated 2021).
Like-named read-outs stand apart in the source and are kept apart here.

Tests used:
IDO1 [1] = target: T1, IDO1 (Homo sapiens, UniProt P14902); test: IDO1 enzymatic assay; assay type: biochemical; set-up: His tag (N); made in house; host or cells: E. coli
Outline: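 Recombinant IDO1 carrying an N-terminal His tag and purified from E. coli was used at 50 nM with test compound, 1.3 mM D-tryptophan, 5 mM L-ascorbic acid, methylene blue and 0.4 mg/mL catalase in 50 mM potassium phosphate pH 7.5 containing 0.1% BSA. This mixture was incubated at 24 °C for 1.5 hours, after which N'-formylkynurenine formation was followed continuously at 321 nm for 1 hour and activity was taken as the slope. IC50 was derived from the enzyme activity remaining as compound concentration increased.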

[2] = target: T2, cellular TDO2 in HEK293-TDO2 cells (Homo sapiens, UniProt P48775); test: 293-TDO2 cell-based assay (Kyn colorimetric); conditions: 48 hours of incubation
T2 construct: expressed in transfected cells; host or cells: HEK293 (ATCC), stably transfected
Outline: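 Kyn formed from L-Trp was read colorimetrically at 480 nm (TCA deproteinisation, then 2% 4-(dimethylamino)benzaldehyde). Compounds were added to 293-TDO2 cells 4 h post-seeding and left 48 h at 37° C. A four-parameter logistic model gave IC50 values.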

IDO1 [3] = target: T1, IDO1; test: Hela cell-based IDO1 assay; conditions: Hela cells
Outline: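 HeLa cells were seeded at 8000 per well in 96-well plates in phenol red-free DMEM with 10% FBS. After 4 hours, DMSO-diluted compound dilutions were added with IFN-γ (final 100 ng/mL) and 0.4 mM L-Trp, and cells were kept 48 hours at 37 °C, 5% CO2. Supernatant was deproteinised with trichloroacetic acid, and kynurenine was measured at 480 nm after adding 2% 4-(dimethylamino)benzaldehyde. Potency came from four-parameter logistic fits in XLfit.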

T2 sequence (P48775 whole entry): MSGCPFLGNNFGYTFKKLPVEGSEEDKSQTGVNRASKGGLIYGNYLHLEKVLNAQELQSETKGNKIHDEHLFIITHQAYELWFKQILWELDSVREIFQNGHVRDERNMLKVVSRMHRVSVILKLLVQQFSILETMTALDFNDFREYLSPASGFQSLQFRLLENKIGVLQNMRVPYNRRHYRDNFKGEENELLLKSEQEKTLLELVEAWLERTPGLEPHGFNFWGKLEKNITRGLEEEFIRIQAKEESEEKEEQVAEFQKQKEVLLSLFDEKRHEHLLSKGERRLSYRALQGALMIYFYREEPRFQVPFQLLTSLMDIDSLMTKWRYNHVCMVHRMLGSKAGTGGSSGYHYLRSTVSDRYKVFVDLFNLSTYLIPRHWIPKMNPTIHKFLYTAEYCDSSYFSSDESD
T1 sequence (P14902 whole entry): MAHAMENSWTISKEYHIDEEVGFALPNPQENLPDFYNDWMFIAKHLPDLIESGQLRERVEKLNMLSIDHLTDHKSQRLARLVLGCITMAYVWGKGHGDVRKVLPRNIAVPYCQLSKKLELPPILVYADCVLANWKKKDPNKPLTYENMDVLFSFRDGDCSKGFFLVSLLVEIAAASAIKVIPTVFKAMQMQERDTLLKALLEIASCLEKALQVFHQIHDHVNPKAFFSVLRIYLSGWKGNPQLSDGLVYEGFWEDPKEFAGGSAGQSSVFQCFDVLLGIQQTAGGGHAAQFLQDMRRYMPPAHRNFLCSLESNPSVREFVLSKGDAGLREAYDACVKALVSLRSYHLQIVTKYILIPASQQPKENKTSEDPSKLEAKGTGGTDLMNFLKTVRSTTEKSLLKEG

| SMILES | IC50 (IDO1 [1]; read-out: Enzyme IC50 IDO1) [nM] | EC50 [2] [nM] | EC50 (IDO1 [3]) [nM] | IC50 (IDO1 [1]; heading: Enzyme IC50 IDO1) [nM] |
| --- | --- | --- | --- | --- |
| O[C@@H](c1c(C2CC2)ccn2cncc12)[C@H]1CC[C@H](c2cccc3ccccc32)CC1 (single isomer, unassigned) [Example C121b] | 1500 | > 10000 | > 10000 |  |
| OC(c1c(C2CC2)ccn2cncc12)C1CCC(c2ccc(OC(F)(F)F)cc2)CC1 (racemic) [Example C105] | 210 | > 10000 | 2010 |  |
| CC(=O)c1ccc(C2CCC(C(O)c3c(C4CC4)ccc4cncn34)CC2)cc1 (stereo not drawn) [Example D158] | 58 | > 10000 | 836 |  |
| OC(c1c(C2CC2)ccn2cncc12)C1CCN(c2ccc(F)c3cccnc23)CC1 (single isomer, unassigned) [Example C155b] | 26 | > 10000 | 40 |  |
| O[C@@H](c1c(C2CC2)ccc2cncn12)[C@H]1CC[C@H](c2ccc(F)cc2F)CC1 (single isomer, unassigned) [Example D127b] | 2700 | > 10000 | 4620 |  |
| CC(=O)COc1ccc([C@H]2CC[C@H]([C@H](O)c3c(C4CC4)ccc4cncn34)CC2)cc1 [Example D151, 1-(4-((1 S,4r)-4-((S)-(6-cyclopropylimidazo[1,5-a]pyridin-5-yl)(hydroxy)methyl)cyclohexyl)phenoxy)propan-2-one] | 15 | > 10000 | 33 |  |
| OC(c1c(C2CC2)ccc2cncn12)C1CCC(c2ccc(OC(F)(F)F)cc2)CC1 (stereo not drawn) [Example D105, (6-cyclopropylimidazo[1,5-a]pyridin-5-yl)(4-(4-trifluoromethoxy)phenylcyclohexyl)methanol] | 76 | > 10000 | 869 |  |
| Cn1cc(-c2ccc(N3CCC(C(O)c4c(C5CC5)ccc5cncn45)CC3)cc2)cn1 (stereo not drawn) [Example D176, (6-cyclopropylimidazo[1,5-a]pyridin-5-yl)(1-(4-(1-methyl-1H-pyrazol-4-yl)phenyl)piperidin-4-yl)methanol] | 25 | > 10000 | 109 |  |
| OC(c1c(C2CC2)ccn2cncc12)C1CCN(c2ccc(F)c3ncccc23)CC1 (stereo not drawn) [Example C149, (7-cyclopropylimidazo[1,5-a]pyridin-8-yl)(1-(8-fluoroquinolin-5-yl)piperidin-4-yl)methanol] | 40 | > 10000 | 42 |  |
| N#Cc1ccc(C2CCC(C(O)c3c(C4CC4)ccn4cncc34)CC2)cc1 (racemic) [Example C106, 4-(4-((7-cyclopropylimidazo[1,5-a]pyridin-8-yl)(hydroxy)methyl)cyclohexyl)benzonitrile] | 50 | > 10000 | 429 |  |
| OC(c1c(C2CC2)ccn2cncc12)C1CCC(c2ccc3ccccc3c2)CC1 (stereo not drawn) [Example C122, (7-cyclopropylimidazo[1,5-a]pyridin-8-yl)(4-(naphthalen-2-yl)cyclohexyl)methanol] | 74 | > 10000 | 382 |  |
| OC(c1c(C2CC2)ccn2cncc12)C1CCN(c2ccnc3ccc(F)cc23)CC1 (stereo not drawn) [Example C151, (7-cyclopropylimidazo[1,5-a]pyridin-8-yl)(1-(6-fluoroquinolin-4-yl)piperidin-4-yl)methanol] | 35 | > 10000 | 373 |  |
| Cc1cccc(C2CCC(C(O)c3c(C4CC4)ccn4cncc34)CC2)c1 (racemic) [Example C111, (7-cyclopropylimidazo[1,5-a]pyridin-8-yl)(4-(m-tolyl)cyclohexyl)methanol] | 82 | > 10000 | 200 |  |
| OC(c1c(C2CC2)ccn2cncc12)C1CCC(c2ccccc2F)CC1 (racemic) [Example C108, (7-cyclopropylimidazo[1,5-a]pyridin-8-yl)(4-(2-fluorophenyl)cyclohexyl)methanol] | 59 | > 10000 | 320 |  |
| COc1ccc([C@H]2CC[C@H]([C@@H](O)c3c(C4CC4)ccc4cncn34)CC2)cc1 (single isomer, unassigned) [Example D102b] |  | > 10000 | 6770 | > 10000 |
| COCCOc1ccc(C2CCC(C(O)c3c(C4CC4)ccn4cncc34)CC2)cc1 (racemic) [Example C103, (7-cyclopropylimidazo[1,5-a]pyridin-8-yl)(4-(4-(2-methoxyethoxy)phenyl)cyclohexyl)methanol] | 62 | > 10000 | 95 |  |
| O[C@@H](c1c(C2CC2)ccn2cncc12)[C@H]1CC[C@H](c2cccc3ncccc32)CC1 (single isomer, unassigned) [Example C126b] | 1900 | > 10000 | 6050 |  |

| SMILES | IC50 (IDO1 [1]; read-out: Enzyme IC50 IDO1) [nM] | EC50 [2] [nM] | EC50 (IDO1 [3]) [nM] | IC50 (IDO1 [1]; heading: Enzyme IC50 IDO1) [nM] |
| --- | --- | --- | --- | --- |
| COc1ccc([C@H]2CC[C@H](C(O)c3c(C4CC4)ccc4cncn34)CC2)c(F)c1 (single isomer, unassigned) [Example D146b] | 2900 | > 10000 | 4570 |  |
| OC(c1c(C2CC2)ccc2cncn12)C1CCC(c2ccc(F)c(Cl)c2)CC1 (stereo not drawn) [Example D129, (4-(3-chloro-4-fluorophenyl)cyclohexyl)(6-cyclopropylimidazo[1,5-a]pyridin-5-yl)methanol] | 53 | > 10000 | 148 |  |
| COCCOc1ccc([C@H]2CC[C@H]([C@@H](O)c3c(C4CC4)ccn4cncc34)CC2)cc1 (single isomer, unassigned) [Example C103b] | 1200 | > 10000 | 2980 |  |
| OC(c1c(C2CC2)ccc2cncn12)C1CCC(c2ccc(F)c3ccccc23)CC1 (stereo not drawn) [Example D137, (6-cyclopropylimidazo[1,5-a]pyridin-5-yl)(4-(4-fluoronaphthalen-1-yl)cyclohexyl)methanol] | 62 | > 10000 | 98 |  |
| O[C@@H](c1c(C2CC2)ccc2cncn12)[C@H]1CC[C@H](c2ccc(F)c(Cl)c2)CC1 (single isomer, unassigned) [Example D129b] | 7670 | > 10000 | 5120 |  |
| O[C@@H](c1c(C2CC2)ccc2cncn12)[C@H]1CC[C@H](c2ccc3ncccc3c2)CC1 (single isomer, unassigned) [Example D157b] | > 10000 | > 10000 | > 10000 |  |
| O[C@H](c1c(C2CC2)ccc2cncn12)[C@H]1CC[C@H](c2ccc(F)c(Cl)c2)CC1 (single isomer, unassigned) [Example D129a] | 21 | > 10000 | 56 |  |
| OC(c1c(C2CC2)ccc2cncn12)C1CCC(c2ccnc3c(F)cccc23)CC1 (stereo not drawn) [Example D164, (6-cyclopropylimidazo[1,5-a]pyridin-5-yl)(4-(8-fluoroquinolin-4-yl)cyclohexyl)methanol] | 33 | > 10000 | 51 |  |
| O[C@H](c1c(C2CC2)ccc2cncn12)[C@H]1CC[C@@H](c2ccc(OC3CCOCC3)cc2)CC1 [Example D114d, (S)-(6-cyclopropylimidazo[1,5-a]pyridin-5-yl)((1 s,4R)-4-(4-((tetrahydro-2H-pyran-4-yl)oxy)phenyl)cyclohexyl)methanol] | 1400 | > 10000 | 5110 |  |
| O[C@@H](c1c(C2CC2)ccc2cncn12)C1CCN(c2cccc(Cl)c2)CC1 (single isomer, unassigned) [Example D173b] | 2700 | > 10000 | 7390 |  |
| OC(c1c(C2CC2)ccc2cncn12)C1CCC(c2ccc3cccnc3c2)CC1 (stereo not drawn) [Example D161, (6-cyclopropylimidazo[1,5-a]pyridin-5-yl)(4-(quinolin-7-yl)cyclohexyl)methanol] | 34 | > 10000 | 263 |  |
| OC(c1c(C2CC2)ccn2cncc12)C1CCN(c2ccc(F)cc2)CC1 (single isomer, unassigned) [Example C137b] | 4100 | > 10000 | > 10000 |  |
| CC(C)c1ccc2cncn2c1[C@@H](O)[C@H]1CC[C@H](c2ccc(F)cc2)CC1 (single isomer, unassigned) [Example D166a] | 26 | > 10000 | 14 |  |
| O[C@@H](c1c(C2CC2)ccc2cncn12)C1CCN(c2ccccc2)CC1 (single isomer, unassigned) [Example D170b] | 8820 | > 10000 | 7940 |  |
| Cc1ccc([C@H]2CC[C@H]([C@@H](O)c3c(C4CC4)ccn4cncc34)CC2)cc1 (single isomer, unassigned) [Example C110b] | > 10000 | > 10000 | > 10000 |  |
| O[C@@H](c1c(C2CC2)ccn2cncc12)[C@H]1CC[C@H](c2ccc(OC3COC3)cc2)CC1 (single isomer, unassigned) [Example C117b] | 1100 | > 10000 | > 10000 |  |
| Oc1ccccc1[C@H]1CC[C@H]([C@H](O)c2c(C3CC3)ccc3cncn23)CC1 (single isomer, unassigned) [Example D112a] | 15 | > 10000 | 26 |  |
